These results are taken from patent publication US10300060B2, “Trk-inhibiting compound” (ONO PHARMACEUTICAL CO., LTD., priority 2013, dated 2019).

Assay [1] concerns the target b-Raf (Homo sapiens (Human), UniProt P15056). Kind of assay: Enzyme-inhibiting activity test of kinases other than Trk (selectivity experiment): b-Raf. The class given is biochemical. Particulars: concentration of 3 μM; read-out: Inhibition rate (%) b-Raf. Here is the method: (§1) A test substance (the present compound) was dissolved in dimethylsulfoxide to prepare a 100-fold concentration of the test concentration, 3 μM. The solution was further diluted to 25-fold with an assay buffer (20 mM HEPES, 0.01% Triton X-100, 2 mM DTT, pH 7.5) to obtain a test substance solution. In a similar manner a positive control substance solution was prepared with a positive control substance.
(§2) A 4-times concentration solution (5 μL) of the test substance prepared with the assay buffer, 5 μL of a 4-times concentration solution of substrate/ATP/metal (Mg) and 10 μL of a 2-times concentration solution of kinase were mixed in a well of a polypropylene 384-well plate and allowed to react at room temperature for 1 hour. The reaction was terminated by adding 60 μL of a Termination Buffer (QuickScout Screening Assist MSA; Carna Biosciences). The substrate peptide and the phosphorylated peptide in the reaction solution were separated and quantified. The kinase reaction was assessed from the product ratio (P/(P+S)) calculated from the height (S) of the peak of the substrate peptide and the height (P) of the peak of the phosphorylated peptide. Other kinases used in the kinase selectivity experiments were, for example, b-Raf and KDR. The following Table 3 indicates substrates, substrate concentrations, ATP concentrations and positive control substances used in respective kinase enzyme inhibition activity tests.

The target of assay [2] is KDR (Homo sapiens (Human), UniProt P35968). Kind of assay: Enzyme-inhibiting activity test of kinases other than Trk (selectivity experiment): KDR. Conditions: concentration of 3 μM; read-out: Inhibition rate (%) KDR. The class given is biochemical. Here is the method:
as §1, §2

Assay [3] deals with sodium monoiodoacetate-induced model rats. Nature of the assay: Analgesic effect on sodium monoiodoacetate-induced model rats. The class given is in vivo, rat. Conditions: MIA-induced model rats, test substance orally twice a day day 14 to 23, day 24 3 hours before measurement, right hind limb weight load ratio.
The mark [4] stands for this setting: experiment with morphine as positive control.
[5] abbreviates: experiment with tramadol as positive control.

Chain of b-Raf (P15056 whole entry, species assumed): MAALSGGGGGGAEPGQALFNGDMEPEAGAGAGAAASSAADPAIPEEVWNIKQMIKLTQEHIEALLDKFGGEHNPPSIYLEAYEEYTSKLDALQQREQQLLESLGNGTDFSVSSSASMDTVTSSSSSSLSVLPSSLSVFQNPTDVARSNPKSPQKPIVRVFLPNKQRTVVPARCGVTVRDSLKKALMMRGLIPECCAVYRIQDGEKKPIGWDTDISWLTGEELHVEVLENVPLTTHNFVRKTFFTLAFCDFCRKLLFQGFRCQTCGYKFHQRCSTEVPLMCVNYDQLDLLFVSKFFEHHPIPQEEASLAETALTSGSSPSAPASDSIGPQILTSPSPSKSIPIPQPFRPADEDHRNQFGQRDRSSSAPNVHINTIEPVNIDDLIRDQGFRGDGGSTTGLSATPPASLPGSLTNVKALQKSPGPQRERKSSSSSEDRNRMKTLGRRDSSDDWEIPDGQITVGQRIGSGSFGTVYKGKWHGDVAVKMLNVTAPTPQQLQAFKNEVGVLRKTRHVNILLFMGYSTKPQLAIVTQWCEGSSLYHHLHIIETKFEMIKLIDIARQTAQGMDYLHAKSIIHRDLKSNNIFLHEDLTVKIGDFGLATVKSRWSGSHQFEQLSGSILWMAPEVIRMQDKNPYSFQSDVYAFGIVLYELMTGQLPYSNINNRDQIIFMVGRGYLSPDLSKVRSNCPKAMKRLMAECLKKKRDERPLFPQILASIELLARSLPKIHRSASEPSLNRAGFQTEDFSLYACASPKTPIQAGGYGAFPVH
Chain of KDR (P35968 20-1356, species assumed): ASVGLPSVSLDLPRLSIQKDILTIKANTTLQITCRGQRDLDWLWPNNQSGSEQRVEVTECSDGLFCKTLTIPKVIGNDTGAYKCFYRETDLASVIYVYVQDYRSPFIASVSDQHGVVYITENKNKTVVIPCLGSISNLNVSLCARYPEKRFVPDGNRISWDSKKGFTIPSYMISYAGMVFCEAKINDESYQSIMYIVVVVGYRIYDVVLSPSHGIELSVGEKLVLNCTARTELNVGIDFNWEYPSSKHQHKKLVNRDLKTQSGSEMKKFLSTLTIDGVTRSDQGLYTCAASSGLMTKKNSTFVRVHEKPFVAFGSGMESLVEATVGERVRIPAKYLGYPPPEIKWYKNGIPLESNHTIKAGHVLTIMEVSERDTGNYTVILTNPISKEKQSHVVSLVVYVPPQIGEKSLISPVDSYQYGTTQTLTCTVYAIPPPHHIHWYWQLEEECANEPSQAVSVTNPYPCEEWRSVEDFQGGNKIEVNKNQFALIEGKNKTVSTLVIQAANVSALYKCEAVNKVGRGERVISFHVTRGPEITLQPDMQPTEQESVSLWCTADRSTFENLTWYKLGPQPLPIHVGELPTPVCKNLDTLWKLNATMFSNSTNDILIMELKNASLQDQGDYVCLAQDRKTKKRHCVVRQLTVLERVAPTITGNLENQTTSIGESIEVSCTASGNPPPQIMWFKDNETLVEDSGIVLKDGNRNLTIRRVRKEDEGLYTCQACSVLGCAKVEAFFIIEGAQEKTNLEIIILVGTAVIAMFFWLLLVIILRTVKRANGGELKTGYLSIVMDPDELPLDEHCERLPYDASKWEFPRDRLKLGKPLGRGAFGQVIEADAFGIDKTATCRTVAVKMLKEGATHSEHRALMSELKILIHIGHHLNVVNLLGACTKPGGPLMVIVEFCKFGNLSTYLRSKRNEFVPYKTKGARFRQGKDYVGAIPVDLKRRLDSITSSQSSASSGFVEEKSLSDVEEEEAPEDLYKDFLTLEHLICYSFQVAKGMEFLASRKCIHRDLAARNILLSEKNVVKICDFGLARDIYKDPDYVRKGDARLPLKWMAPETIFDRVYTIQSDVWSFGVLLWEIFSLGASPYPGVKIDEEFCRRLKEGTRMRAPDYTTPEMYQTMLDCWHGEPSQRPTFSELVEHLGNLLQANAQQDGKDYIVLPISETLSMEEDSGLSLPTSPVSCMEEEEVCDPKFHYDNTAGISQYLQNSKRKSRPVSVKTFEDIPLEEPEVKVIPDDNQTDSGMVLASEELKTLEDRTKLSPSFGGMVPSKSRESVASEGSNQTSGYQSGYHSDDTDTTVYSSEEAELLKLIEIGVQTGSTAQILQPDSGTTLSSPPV

As for `Nc1ncc(C(F)(F)F)cc1-c1ccc(Oc2ncc(NC(=O)Nc3cc(C(F)(F)F)ccc3-n3ccc(C(F)(F)F)n3)cn2)cc1` [Example 15-52, 1-(2-{4-[2-amino-5-(trifluoromethyl)-3-pyridinyl]phenoxyl}-5-pyrimidinyl)-3-{5-(trifluoromethyl)-2-[3-(trifluoromethyl)-1H-pyrazol-1-yl]phenyl}urea], the figures for the inhibition at 3 µM in assay [1] and in assay [2] were 20% and 0%, respectively. The “Percent improvement (%)” value in assay [3] (setting [4]) worked out at 60%.

With `CS(=O)(=O)c1ccc(C(F)(F)F)cc1NC(=O)Nc1cnc(Oc2ccc(-c3cc(C(F)(F)F)cnc3N)cc2)nc1` [Example 15-98, 1-(2-{4-[2-amino-5-(trifluoromethyl)-3-pyridinyl]phenoxyl}-5-pyrimidinyl)-3-[2-(methylsulfonyl)-5-(trifluoromethyl)phenyl]urea], the results for the inhibition at 3 µM in assay [1] and in assay [2] were 23% and 8%, respectively. In addition, the “Percent improvement (%)” value in assay [3] (setting [4]) is given as 57%.

Consider `Nc1ncc(Cl)cc1-c1ccc(Oc2ncc(NC(=O)Nc3cc(C(F)(F)F)ccc3-c3ccccc3)cn2)cc1` [Example 15-55, 1-{2-[4-(2-amino-5-chloro-3-pyridinyl)phenoxy]-5-pyrimidinyl}-3-[4-(trifluoromethyl)-2-biphenylyl]urea], for which the figures for the inhibition at 3 µM in assay [1] and in assay [2] were 30% and 0%, respectively. The “Percent improvement (%)” value in assay [3] (setting [4]) was 62%.

Consider `Nc1ncc(F)cc1-c1ccc(Oc2ncc(NC(=O)Nc3cc(C(F)(F)F)ccc3-n3ccnn3)cn2)cc1` [Example 14-5, 1-(2-(1H-1,2,3-triazol-1-yl)-5-(trifluoromethyl)phenyl)-3-(2-(4-(2-amino-5-fluoropyridin-3-yl)phenoxy)pyrimidin-5-yl)urea], for which the inhibition at 3 µM in assay [1] was determined as 13%; in assay [2], 0%. Moreover, in assay [3] (setting [5]), the “Percent improvement (%)” value worked out at 47%.

With `Cc1cn(-c2ccc(C(F)(F)F)cc2NC(=O)Nc2cnc(Oc3ccc(-c4cc(Cl)cnc4N)cc3)nc2)nn1` [Example 8-1, 1-(2-(4-(2-amino-5-chloropyridin-3-yl)phenoxy)pyrimidin-5-yl)-3-(2-(4-methyl-1H-1,2,3-triazol-1-yl)-5-(trifluoromethyl)phenyl)urea], the inhibition at 3 µM amounted to 6.5% in assay [1] and 0% in assay [2]. Also, in assay [3] (setting [5]), the “Percent improvement (%)” value was found to be 60%.

On to `Nc1ncc(Cl)cc1-c1ccc(Oc2ncc(NC(=O)Nc3cc(C(F)(F)F)ccc3-n3cc(Cl)cn3)cn2)cc1` [Example 15-63, 1-{2-[4-(2-amino-5-chloro-3-pyridinyl)phenoxy]-5-pyrimidinyl}-3-[2-(4-chloro-1H-pyrazol-1-yl)-5-(trifluoromethyl)phenyl]urea], for which the inhibition at 3 µM in assay [1] was found to be 43%; in assay [2], 0%. Besides, in assay [3] (setting [4]), the “Percent improvement (%)” value is 53%.

As for `Nc1ncc(Cl)cc1-c1ccc(Oc2ncc(NC(=O)Nc3cc(C(F)(F)F)ccc3-n3cccn3)cn2)cc1` [Example 7, 1-(2-(1H-pyrazol-1-yl)-5-(trifluoromethyl)phenyl)-3-(2-(4-(2-amino-5-chloropyridin-3-yl)phenoxy)pyrimidin-5-yl)urea], the inhibition at 3 µM in assay [1] was 40%; in assay [2], 0%. Moreover, in assay [3] (setting [5]), the “Percent improvement (%)” value worked out at 61%.

As for `Nc1ncc(C(F)(F)F)cc1-c1ccc(Oc2ncc(NC(=O)Nc3cc(C(F)(F)F)ccc3-n3cc(Cl)cn3)cn2)cc1` [Example 15-87, 1-(2-{4-[2-amino-5-(trifluoromethyl)-3-pyridinyl]phenoxyl}-5-pyrimidinyl)-3-[2-(4-chloro-1H-pyrazol-1-yl)-5-(trifluoromethyl)phenyl]urea], the inhibition at 3 µM was determined as 34% in assay [1] and 0% in assay [2]. Besides, the “Percent improvement (%)” value in assay [3] (setting [4]) is on record as 57%.

With `CS(=O)(=O)c1ccc(C(F)(F)F)cc1NC(=O)Nc1cnc(Oc2ccc(-c3cc(Cl)cnc3N)cc2)nc1` [Example 15-104, 1-{2-[4-(2-amino-5-chloro-3-pyridinyl)phenoxy]-5-pyrimidinyl}-3-[2-(methylsulfonyl)-5-(trifluoromethyl)phenyl]urea], the inhibition at 3 µM in assay [1] is 53%; in assay [2], 18%. The “Percent improvement (%)” value in assay [3] (setting [4]) is given as 54%.

In the case of `CN(C)c1ccn2ncc(-c3ccc(Oc4ncc(NC(=O)Nc5cc(C(F)(F)F)ccc5-c5ccnn5C)cn4)cc3)c2n1` [Example 21-51, 1-(2-{4-[5-(dimethylamino)pyrazolo[1,5-a]pyrimidin-3-yl]phenoxyl}-5-pyrimidinyl)-3-[2-(1-methyl-1H-pyrazol-5-yl)-5-(trifluoromethyl)phenyl]urea], the inhibition at 3 µM came out at 49% in assay [1] and 9% in assay [2]. In addition, the “Percent improvement (%)” value in assay [3] (setting [4]) is reported as 68%.

For the molecule `Nc1ncc(Cl)cc1-c1ccc(Oc2ncc(NC(=O)Nc3ccc(C(F)(F)F)cc3C(F)(F)F)cn2)cc1` [Example 15-77, 1-{2-[4-(2-amino-5-chloro-3-pyridinyl)phenoxy]-5-pyrimidinyl}-3-[2,4-bis(trifluoromethyl)phenyl]urea], the inhibition at 3 µM in assay [1] turned out to be 32%; in assay [2] it was 0%. Further, in assay [3] (setting [4]), the “Percent improvement (%)” value is 55%.

With `Nc1ncc(F)cc1-c1ccc(Oc2ncc(NC(=O)Nc3cc(C(F)(F)F)ccc3-c3cccnc3)cn2)cc1` [Example 14-6, 1-(2-(4-(2-amino-5-fluoropyridin-3-yl)phenoxy)pyrimidin-5-yl)-3-(2-(pyridin-3-yl)-5-(trifluoromethyl)phenyl)urea], the inhibition at 3 µM in assay [1] came to 45%; in assay [2], 1.7%. Moreover, in assay [3] (setting [4]), the “Percent improvement (%)” value is reported as 53%.

In the case of `Nc1ncc(Cl)cc1-c1ccc(Oc2ncc(NC(=O)Nc3ccc(C(F)(F)F)cc3Cl)cn2)cc1` [Example 15-6, 1-(2-(4-(2-amino-5-chloropyridin-3-yl)phenoxy)pyrimidin-5-yl)-3-(2-chloro-4-(trifluoromethyl)phenyl)urea], the inhibition at 3 µM in assay [1] came to 37%; in assay [2] it was 0%. Also, the “Percent improvement (%)” value in assay [3] (setting [5]) was 51%.

In the case of `Cc1cccc(-c2ccc(C(F)(F)F)cc2NC(=O)Nc2cnc(Oc3ccc(-c4cnn5ccc(N(C)C)nc45)cc3)nc2)c1` [Example 21-73, 1-(2-{4-[5-(dimethylamino)pyrazolo[1,5-a]pyrimidin-3-yl]phenoxyl}-5-pyrimidinyl)-3-[3′-methyl-4-(trifluoromethyl)-2-biphenylyl]urea], the inhibition at 3 µM in assay [1] turned out to be 21%; in assay [2] it was 0%. Also, in assay [3] (setting [4]), the “Percent improvement (%)” value is 62%.

One may read the inhibition as the change of the read-out against control, counted positive when it falls.
